The results in this text go back to patent US20260223843A1, “I[…]” (FYTEKO SA, priority 2022, published 2026).

The structures appear in SMILES notation.

Holding throughout (format): in vivo
For series [1], the system named is brown plant hopper (Nilaparvata lugens). Put plainly: Control of the brown plant hopper in rice plants (spray, mortality). To be noted: mortality of hopper larvae on sprayed rice plants; mg/L: Polyferulate 48, Chlorantraniliprole 45, Cyantraniliprole 135, combinations 48 + 45 and 48 + 135. How it is done:
To determine the efficacy of insecticides on the mortality percentage of brown planthopper an experiment was conducted in the laboratory. The seedlings of 30-40 days old rice plant (Oryza sativa) were transplanted in plastic pot. The rice plants were grown in plastic pots with Mylar film cage and kept in the laboratory. Rice plants are sprayed with the preparation of the active compound at the desired concentration and are infested with larvae of the brown plant hopper (Nilaparvata lugens) while the rice leaves are still moist. Ten brown planthopper were released in each pot that was selected randomly.
The brown planthopper (BPH), Nilaparvata lugens (Hemiptera: Delphacidae) is a planthopper species that feeds on rice plants (Oryza sativa L.). These insects are among the most important pests of rice, which is the major staple crop for about half the world's population. After 3 days, the mortality in percentage is determined. 100% means that all the hopper larvae have been killed; 0% means that none of the hopper larvae have been killed.

Series [2] has as its system whitefly (Bemisia tabaci). In words: Control of whitefly in cotton plants (translaminar efficacy). The settings on record: 2nd instar nymphs on cotton leaf, adults counted, mg/L: Polyferulate 4, Spirotetramat 18.6, Imidacloprid 21.8, combinations 4 + 18.6 and 4 + 21.8. How it is done:
Three-week-old cotton plants were defoliated so that only one true leaf remained. 20-30 female adults of B. tabaci were clipped to the underside of the leaf for egg deposition and removed after 16 h. The silverleaf whitefly (Bemisia tabaci, also informally referred to as the sweet potato whitefly) is one of several species of whitefly that are currently important agricultural pests.
Once the 2nd instar nymphs had settled the upper side of the leaf was sprayed using a TLC spraying device (Merck Inc.). Before spraying the number of nymphs was counted on each leaf. The application volume was 500 μL of tested insecticides solutions diluted in tap water. The final concentration of each component appears in the table. Translaminar efficacy was evaluated by counting adults 10 days after application.

The nature of series [3]: Insecticide uptake by leaves of rice plants (LC-MS/MS). The settings on record: chlorantraniliprole in rice leaves 72 h after smearing 5 mL; chlorantraniliprole 100 μg/mL, polyferulate 25 μg/mL where present; three replicates. How it is done: Rice plants were cultivated in a plant growth chamber with a 12 h day and high intensity lighting. The rice leaves near the roots were smeared with 5 mL of solution containing chlorantraniliprole (100 μg·mL−1) or chlorantraniliprole (100 μg·mL−1) and polyferulate solution (25 μg·mL−1) and covered. When the droplets on the leaves were dried, the plastic was taken away. The rice leaves were harvested 72 h after treated. A sample of the rice leaves (5 g) was weighted and extracted with acetonitrile and the content of uptake chlorantraniliprole determinate by LC-MS/MS. Each experiment was repeated for three replicates.

Regarding `CNC(=O)c1cc(C#N)cc(C)c1NC(=O)c1cc(Br)nn1-c1ncccc1Cl` [Cyantraniliprole], the “Observed efficacy (%) 3 days after treatment” value in series [1] was determined as 30%.

In the case of `CCOC(=O)OC1=C(c2cc(C)ccc2C)C(=O)N[C@]12CC[C@@H](OC)CC2` [Spirotetramat], in series [2], the “Observed efficacy (%) 10 days after treatment” value came out at 75%. Take `O=[N+]([O-])NC1=NCCN1Cc1ccc(Cl)nc1` [Imidacloprid]: the “Observed efficacy (%) 10 days after treatment” value in series [2] amounted to 45%. For `CNC(=O)c1cc(Cl)cc(C)c1NC(=O)c1cc(Br)nn1-c1ncccc1Cl` [Chlorantraniliprole], the “Observed efficacy (%) 3 days after treatment” value in series [1] was determined as 50%. Also, the “Content of insecticide in the plant material” value in series [3] stood at 38.0 ± 0.3 µg/g.
